Assay results from the supplement of paper PMC6315032.

Assays:
Assay in all cases: apparent dissociation constant (pKDapp, Kinobeads competition, Cheng-Prusoff corrected) (-log10 M); higher = tighter binding
[1] = target: MAST2 (UniProt Q6P0Q8); details: affinity matrix / lysate: Kinobeads, mixed HEK293/K-562/placenta lysate
[2] = target: MARK2 (UniProt Q7KZI7); details: affinity matrix / lysate: Kinobeads, mixed HEK293/K-562/placenta lysate
[3] = target: GAK (UniProt O14976); details: affinity matrix / lysate: Kinobeads, mixed HEK293/K-562/placenta lysate
[4] = target: MAPKAPK5 (UniProt Q8IW41); details: affinity matrix / lysate: Kinobeads, mixed HEK293/K-562/placenta lysate
[5] = target: EPHB3 (UniProt P54753); details: affinity matrix / lysate: Kinobeads, mixed HEK293/K-562/placenta lysate
[6] = target: CSNK1D (UniProt P48730); details: affinity matrix / lysate: Kinobeads, mixed HEK293/K-562/placenta lysate
[7] = target: PRKAA1 (UniProt Q13131); details: affinity matrix / lysate: Kinobeads, mixed HEK293/K-562/placenta lysate
[8] = target: MAPK8 (UniProt P45983); details: affinity matrix / lysate: Kinobeads, mixed HEK293/K-562/placenta lysate
[9] = target: MARK1 (UniProt Q9P0L2); details: affinity matrix / lysate: Kinobeads, mixed HEK293/K-562/placenta lysate
[10] = target: WEE1 (UniProt P30291); details: affinity matrix / lysate: Kinobeads, mixed HEK293/K-562/placenta lysate
[11] = target: MAP3K5 (UniProt Q99683); details: affinity matrix / lysate: Kinobeads, mixed HEK293/K-562/placenta lysate
[12] = target: RPS6KA4 (UniProt O75676); details: affinity matrix / lysate: Kinobeads, mixed HEK293/K-562/placenta lysate
[13] = target: PRKD1 (UniProt Q15139); details: affinity matrix / lysate: Kinobeads, mixed HEK293/K-562/placenta lysate
[14] = target: FRK (UniProt P42685); details: affinity matrix / lysate: Kinobeads, mixed HEK293/K-562/placenta lysate
[15] = target: TAOK1 (UniProt Q7L7X3); details: affinity matrix / lysate: Kinobeads, mixed HEK293/K-562/placenta lysate
[16] = target: NEK2 (UniProt P51955); details: affinity matrix / lysate: Kinobeads, mixed HEK293/K-562/placenta lysate
[17] = target: EPHA3 (UniProt P29320); details: affinity matrix / lysate: Kinobeads, mixed HEK293/K-562/placenta lysate
[18] = target: CDC42BPA (UniProt Q5VT25); details: affinity matrix / lysate: Kinobeads, mixed HEK293/K-562/placenta lysate
[19] = target: PIM1 (UniProt P11309); details: affinity matrix / lysate: Kinobeads, mixed HEK293/K-562/placenta lysate
[20] = target: PIK3C2B (UniProt O00750)
[21] = target: ULK1 (UniProt O75385); details: affinity matrix / lysate: Kinobeads, mixed HEK293/K-562/placenta lysate
[22] = target: CSK (UniProt P41240); details: affinity matrix / lysate: Kinobeads, mixed HEK293/K-562/placenta lysate
[23] = target: CDC42BPB (UniProt Q9Y5S2); details: affinity matrix / lysate: Kinobeads, mixed HEK293/K-562/placenta lysate
[24] = target: STK33 (UniProt Q9BYT3); details: affinity matrix / lysate: Kinobeads, mixed HEK293/K-562/placenta lysate
[25] = target: AURKA (UniProt O14965); details: affinity matrix / lysate: Kinobeads, mixed HEK293/K-562/placenta lysate
[26] = target: MAP2K2 (UniProt P36507); details: affinity matrix / lysate: Kinobeads, mixed HEK293/K-562/placenta lysate
[27] = target: CDK10 (UniProt Q15131); details: affinity matrix / lysate: Kinobeads, mixed HEK293/K-562/placenta lysate
[28] = target: RPS6KB1 (UniProt P23443); details: affinity matrix / lysate: Kinobeads, mixed HEK293/K-562/placenta lysate
[29] = target: AAK1 (UniProt Q2M2I8); details: affinity matrix / lysate: Kinobeads, mixed HEK293/K-562/placenta lysate
[30] = target: CLK1 (UniProt P49759); details: affinity matrix / lysate: Kinobeads, mixed HEK293/K-562/placenta lysate
[31] = target: PI4K2B (UniProt Q8TCG2); details: affinity matrix / lysate: Lipid Kinobeads, mixed HeLa/Jurkat/K-562 lysate
[32] = target: INSR (UniProt P06213); details: affinity matrix / lysate: Kinobeads, mixed HEK293/K-562/placenta lysate
[33] = target: DAPK3 (UniProt O43293); details: affinity matrix / lysate: Kinobeads, mixed HEK293/K-562/placenta lysate
[34] = affinity matrix / lysate: Lipid Kinobeads, mixed HeLa/Jurkat/K-562 lysate

Measured: apparent dissociation constant (-log10 M)

COc1ccc(-c2ccc3c(N4CCOC[C@@H]4C)nc(N4CCOC[C@@H]4C)nc3n2)cc1CO [AZD8055]
< 6: [1] | [2] | [3] | [4] | [5] | [6] | [7] | [8] | [9] | [10] | [11] | [12] | [13] | [14] | [15] | [16] | [17] | [18] | [19] | [20]; [34] | [21] | [22] | [23] | [24] | [25] | [26] | [27] | [28] | [29] | [30] | [31] | [32] | [33]

CCNC(=O)Nc1ccc(-c2nc(N3CCOC[C@@H]3C)c3c(n2)C(C)(C)S(=O)(=O)C3)cc1 [CZ415]
< 6: [1] | [2] | [3] | [4] | [5] | [6] | [7] | [8] | [9] | [10] | [11] | [12] | [13] | [14] | [15] | [16] | [17] | [18] | [19] | [20]; affinity matrix / lysate: Kinobeads, mixed HEK293/K-562/placenta lysate | [20]; [34] | [21] | [22] | [23] | [24] | [25] | [26] | [27] | [28] | [29] | [30] | [31] | [32] | [33]
